In patent US10329302B2, “Bicyclic-fused heteroaryl or aryl compounds” (Pfizer Inc., priority 2014, dated 2019) one finds IC50 data, which are given here for 33 compounds.

Where two headings read alike, the source gives them in different places.

For assay [1], the system named is R848-induced TNFα production by human peripheral blood mononuclear cells (PBMCs). The experiment in a line: R848 Induced TNFα in Human PBMC Assay. The assay is classed as cell-based.
In assay [2] the target is human IRAK4 FL (Full Length) (Homo sapiens (Human), UniProt Q9NWZ3). The experiment in a line: IRAK4 Enzymatic DELFIA Assay, Protocol A. The assay is classed as biochemical.
Setting [3] is: Homo sapiens, PBMC, 3 h, read-out: R848-induced TNFa PBMC IC50 (nM).
Setting [4] is: human PBMC, absence of serum, 3 hours, read-out: R848-induced TNFa PBMC IC50.
[5] abbreviates: human IRAK4 FL, 0.6 mM ATP (KM), read-out: IRAK4 DELFIA Protocol A IC50.

Chain of human IRAK4 FL (Full Length) (Q9NWZ3 whole entry): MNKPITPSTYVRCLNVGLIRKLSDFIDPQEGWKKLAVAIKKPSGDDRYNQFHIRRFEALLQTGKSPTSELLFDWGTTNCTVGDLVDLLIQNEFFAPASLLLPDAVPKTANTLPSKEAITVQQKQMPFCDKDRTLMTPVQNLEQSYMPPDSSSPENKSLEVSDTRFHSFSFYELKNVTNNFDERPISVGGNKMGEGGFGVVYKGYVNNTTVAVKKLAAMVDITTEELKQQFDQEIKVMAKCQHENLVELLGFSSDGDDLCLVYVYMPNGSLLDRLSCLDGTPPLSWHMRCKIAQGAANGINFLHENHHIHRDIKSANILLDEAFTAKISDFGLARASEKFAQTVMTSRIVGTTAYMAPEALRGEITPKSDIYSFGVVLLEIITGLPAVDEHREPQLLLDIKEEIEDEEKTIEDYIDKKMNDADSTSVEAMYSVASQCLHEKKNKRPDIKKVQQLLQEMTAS

Take `CCC1C[C@@H](COc2nccc3cc(C(N)=O)c(OC(C)C)cc23)NC1=O` (single isomer, unassigned) [Example 113]: the IC50 (as a rule, the concentration that inhibits the measured activity by half) in assay [1] (setting [3]) stood at 53 nM.
Same read-out and setting: as for `COc1cc2c(OC[C@H]3NC(=O)[C@H]4C3[C@H]4C)nccc2cc1C(N)=O` (stereo in doubt) [Example 285, 7-methoxy-1-(((1R,2S,5R,6R)-6-methyl-4-oxo-3-azabicyclo[3.1.0]hexan-2-yl)methoxy)isoquinoline-6-carboxamide], the figure is 1060 nM.
The same measure, in the same setting: as for `CC[C@@H]1C2[C@@H](COc3nccc4cc(C(N)=O)c(OC)cc34)NC(=O)[C@@H]21` (stereo in doubt) [Example 301, 1-(((1R,2S,5R,6R)-6-ethyl-4-oxo-3-azabicyclo[3.1.0]hexan-2-yl)methoxy)-7-methoxyisoquinoline-6-carboxamide], the figure is 4050 nM.
Same read-out and setting: as for `COc1cc2c(OC[C@H]3NC(=O)[C@@H]4C(CCF)C43)nccc2cc1C(N)=O` (stereo in doubt) [Example 306, 1-(((1R,2S,5R,6R)-6-(2-fluoroethyl)-4-oxo-3-azabicyclo[3.1.0]hexan-2-yl)methoxy)-7-methoxyisoquinoline-6-carboxamide], the figure is 4060 nM.
In the case of `CC[C@]1(O)[C@H](F)C(=O)N[C@@H]1COc1nccc2cc(C(N)=O)c(OC)cc12` [Example 196, 1-{[(2R,3R,4S)-3-ethyl-4-fluoro-3-hydroxy-5-oxopyrrolidin-2-yl]methoxy}-7-methoxyisoquinoline-6-carboxamide], the 50% inhibitory concentration (IC50) in assay [1] (setting [4]) was determined as 11 nM.
The same measure, in the same setting: as for `CC[C@@H]1[C@H](F)C(=O)NC1(O)COc1nccc2cc(C(N)=O)c(OC)cc12` (stereo partly drawn) [Example 197, 1-{[(3S,4S)-3-ethyl-4-fluoro-2-hydroxy-5-oxopyrrolidin-2-yl]methoxy}-7-methoxyisoquinoline-6-carboxamide], the figure is 71 nM.
The same measure, in the same setting: the figure for `COc1cc2c(OC[C@H]3NC(=O)[C@@H](F)[C@H]3C(C)O)nccc2cc1C(N)=O` (stereo partly drawn) [Example 198, 1-{[(2S,3R,4S)-4-fluoro-3-(1-hydroxyethyl)-5-oxopyrrolidin-2-yl]methoxy}-7-methoxyisoquinoline-6-carboxamide] is 715 nM.
On to `COc1cc2c(OC[C@H]3NC(=O)[C@@H](F)[C@@H]3C)nccc2cc1C(N)=O` [Example 203, 1-{[(2S,3R,4S)-4-fluoro-3-methyl-5-oxopyrrolidin-2-yl]methoxy}-7-methoxyisoquinoline-6-carboxamide], for which the IC50 in assay [1] (setting [3]) was found to be 47 nM.
For `COc1cc2c(OC[C@@H]3C[C@@](F)(CO)C(=O)N3)cccc2cc1C(N)=O` [Example 207, 5-{[(2S,4R)-4-fluoro-4-(hydroxymethyl)-5-oxopyrrolidin-2-yl]methoxy}-3-methoxynaphthalene-2-carboxamide], in assay [1] (setting [4]), the IC50 was 41 nM.
With `CC(C)Oc1cc2c(OC[C@H]3NC(=O)C[C@@H]3CO)nccc2cc1C(N)=O` [Example 212, 1-{[(2S,3S)-3-(hydroxymethyl)-5-oxopyrrolidin-2-yl]methoxy}-7-(propan-2-yloxy)isoquinoline-6-carboxamide], the IC50 in assay [2] (setting [5]) worked out at 150 nM.
The same measure, in the same setting: as for `CC(C)Oc1cc2c(OC[C@H]3NC(=O)[C@@H]4CN(C)C[C@H]34)nccc2cc1C(N)=O` [Example 213, 1-{[(1S,3aS,6aR)-5-methyl-3-oxooctahydropyrrolo[3,4-c]pyrrol-1-yl]methoxy}-7-(propan-2-yloxy)isoquinoline-6-carboxamide], the figure is 1420 nM; as for `COc1cc2c(OC[C@H]3NC(=O)C[C@@H]3CO)nccc2cc1C(N)=O` [Example 214, 1-{[(2S,3S)-3-(hydroxymethyl)-5-oxopyrrolidin-2-yl]methoxy}-7-methoxyisoquinoline-6-carboxamide], 215 nM.
Turning to `COc1cc2c(OC[C@H]3NC(=O)CC3(C)C)nccc2cc1C(N)=O` [Example 221, 1-{[(2S)-3,3-dimethyl-5-oxopyrrolidin-2-yl]methoxy}-7-methoxyisoquinoline-6-carboxamide], the IC50 in assay [2] (setting [5]) was 54 nM.
Still for that read-out and setting: the figure for `COc1cc2c(OC[C@@H]3C[C@H](CC#N)C(=O)N3)nccc2cc1C(N)=O` [Example 224, 1-{[(2S,4R)-4-(cyanomethyl)-5-oxopyrrolidin-2-yl]methoxy}-7-methoxyisoquinoline-6-carboxamide] is 1170 nM; for `CC(C)Oc1cc2c(OC[C@H]3NC(=O)[C@@H]4CNC[C@H]34)nccc2cc1C(N)=O` [Example 226, 1-{[(1S,3aS,6aR)-3-oxooctahydropyrrolo[3,4-c]pyrrol-1-yl]methoxy}-7-(propan-2-yloxy)isoquinoline-6-carboxamide] it is 222 nM.
Same read-out and setting: as for `COc1cc2c(OC[C@H]3CN(C)C(=O)O3)nccc2cc1C(N)=O` [Example 239, 7-methoxy-1-{[(5R)-3-methyl-2-oxo-1,3-oxazolidin-5-yl]methoxy}isoquinoline-6-carboxamide], the figure is 1180 nM.
For `COc1cc2c(OC[C@@H]3C[C@@](F)(CC(F)(F)F)C(=O)N3)cccc2cc1C(N)=O` [Example 240, 5-{[(2S,4R)-4-fluoro-5-oxo-4-(2,2,2-trifluoroethyl)pyrrolidin-2-yl]methoxy}-3-methoxynaphthalene-2-carboxamide], in assay [1] (setting [4]), the IC50 was 24 nM.
Same read-out and setting: as for `COc1cc2c(OC[C@@H]3C[C@](F)(CC(F)(F)F)C(=O)N3)cccc2cc1C(N)=O` [Example 241, 5-{[(2S,4S)-4-fluoro-5-oxo-4-(2,2,2-trifluoroethyl)pyrrolidin-2-yl]methoxy}-3-methoxynaphthalene-2-carboxamide], the figure is 5760 nM.
With `COc1cc2c(OC[C@H]3NC(=O)[C@@H](C)[C@@H]3CF)nccc2cc1C(N)=O` [Example 254, 1-{[(2S,3S,4S)-3-(fluoromethyl)-4-methyl-5-oxopyrrolidin-2-yl]methoxy}-7-methoxyisoquinoline-6-carboxamide], the IC50 in assay [2] (setting [5]) is 2950 nM.
On the same count and under the same terms, as for `COc1cc2c(OC[C@@H]3C[C@](F)(CF)C(=O)N3)nccc2cc1C(N)=O` [Example 261, 1-{[(2S,4R)-4-fluoro-4-(fluoromethyl)-5-oxopyrrolidin-2-yl]methoxy}-7-methoxyisoquinoline-6-carboxamide], the figure is 671 nM.
As for `COc1cc2c(OCC3(C)COCC(=O)N3)nccc2cc1C(N)=O` (stereo not drawn) [Example 265, 7-methoxy-1-[(3-methyl-5-oxomorpholin-3-yl)methoxy]isoquinoline-6-carboxamide], in assay [2] (setting [5]), the IC50 was found to be 1540 nM.
Still for that read-out and setting: as for `COc1cc2c(OC[C@@H]3C[C@H](CC(F)(F)F)C(=O)N3)nccc2cc1C(N)=O` [Example 270, 7-methoxy-1-{[(2S,4R)-5-oxo-4-(2,2,2-trifluoroethyl)pyrrolidin-2-yl]methoxy}isoquinoline-6-carboxamide], the figure is 290 nM.
As to `COc1cc2c(OC[C@@H]3NC(=O)C[C@@H]3C)nccc2cc1C(N)=O` [Example 277, 7-methoxy-1-{[(2R,3S)-3-methyl-5-oxopyrrolidin-2-yl]methoxy}isoquinoline-6-carboxamide], the IC50 in assay [1] (setting [3]) came to 4420 nM.
With `CCOc1cc2c(OC[C@H]3NC(=O)[C@@H]4C[C@H]34)ccnc2cc1C(N)=O` [Example 280, 6-ethoxy-4-{[(1S,2S,5R)-4-oxo-3-azabicyclo[3.1.0]hex-2-yl]methoxy}quinoline-7-carboxamide], in assay [2] (setting [5]), the IC50 is 3790 nM.
In the case of `CCOc1cc2c(OC[C@H]3NC(=O)[C@@H](F)[C@H]3C)nccc2cc1C(N)=O` [Example 283, 7-ethoxy-1-{[(2S,3S,4S)-4-fluoro-3-methyl-5-oxopyrrolidin-2-yl]methoxy}isoquinoline-6-carboxamide], in assay [1] (setting [3]), the IC50 was found to be 27 nM.
As for `COc1cc2c(OC[C@H]3NC(=O)[C@@H]4[C@@H](C)[C@@H]43)c(Cl)cnc2cc1C(N)=O` [Example 321, 3-chloro-6-methoxy-4-{[(1S,2S,5R)-6-methyl-4-oxo-3-azabicyclo[3.1.0]hex-2-yl]methoxy}quinoline-7-carboxamide], the IC50 in assay [2] (setting [5]) came to 4190 nM.
The same measure, in the same setting: as for `COc1cc2c(OC[C@H]3NC(=O)[C@@H]4[C@H](CO)[C@@H]43)nccc2cc1C(N)=O` [Example 328, 1-{[(1S,2S,5S)-6-(hydroxymethyl)-4-oxo-3-azabicyclo[3.1.0]hex-2-yl]methoxy}-7-methoxyisoquinoline-6-carboxamide], the figure is 93 nM; as for `COc1cc2c(O[C@@H](C)[C@@H]3CCC(=O)N3)nccc2cc1C(N)=O` [Example 354, 7-methoxy-1-{(1S)-1-[(2S)-5-oxopyrrolidin-2-yl]ethoxy}isoquinoline-6-carboxamide], 2890 nM; as for `COc1cc2c(OC[C@H]3NC(=O)[C@H](F)[C@H]3CF)nccc2cc1C(N)=O` [Example 375, 1-{[(2S,3R,4R)-4-fluoro-3-(fluoromethyl)-5-oxopyrrolidin-2-yl]methoxy}-7-methoxyisoquinoline-6-carboxamide], 0.3 nM.
Still for that read-out and setting: as for `Cc1ccnc(-c2cnc(OC[C@@H]3CCC(=O)N3)c3cc(OC(C)C)c(C(N)=O)cc23)n1` [Example 376, 4-(4-methylpyrimidin-2-yl)-1-{[(2S)-5-oxopyrrolidin-2-yl]methoxy}-7-(propan-2-yloxy)isoquinoline-6-carboxamide], the figure is 740 nM; as for `CC(C)Oc1cc2c(OC[C@@H]3CCC(=O)N3)ncc(-c3ncc(Cl)cn3)c2cc1C(N)=O` [Example 377, 4-(5-chloropyrimidin-2-yl)-1-{[(2S)-5-oxopyrrolidin-2-yl]methoxy}-7-(propan-2-yloxy)isoquinoline-6-carboxamide], 72 nM.
Consider `CC(C)Oc1cc2c(OC[C@@H]3CCC(=O)N3)ncc(-c3cccc(=O)[nH]3)c2cc1C(N)=O` [Example 378, 4-(6-oxo-1,6-dihydropyridin-2-yl)-1-{[(2S)-5-oxopyrrolidin-2-yl]methoxy}-7-(propan-2-yloxy)isoquinoline-6-carboxamide], for which the IC50 in assay [2] was found to be 59 nM.
Turning to `Cc1nccc(-c2cnc(OC[C@@H]3CCC(=O)N3)c3cc(OC(C)C)c(C(N)=O)cc23)n1` [Example 379, 4-(2-methylpyrimidin-4-yl)-1-{[(2S)-5-oxopyrrolidin-2-yl]methoxy}-7-(propan-2-yloxy)isoquinoline-6-carboxamide], in assay [2] (setting [5]), the IC50 was 503 nM.
